# Measured values as given in PubChem BioAssay (NCI).
#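 1) Cells in 96-well plates. 2) Compound, 48 h, 5 concentrations. 3) Linear interpolation between surrounding doses. 4) Unreached endpoint = highest concentration. Abbreviation: GI50, concentration required for 50% inhibition of growth. TGI marks complete inhibition of growth.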
# Experiments:
# Assay in all cases: inhibition of tumour cell growth, NCI panel, 48 h
# SNB-19 CNS = tested on: SNB-19 CNS
# OVCAR-5 ovarian = tested on: OVCAR-5 ovarian
# HOP-92 NSCLC = tested on: HOP-92 NSCLC
# HCT-116 colon = tested on: HCT-116 colon
# UO-31 renal = tested on: UO-31 renal
# MOLT-4 leukemia = tested on: MOLT-4 leukemia
# M14 melanoma = tested on: M14 melanoma
# K-562 leukemia = tested on: K-562 leukemia
# MALME-3M melanoma = tested on: MALME-3M melanoma
# PC-3 prostate = tested on: PC-3 prostate
# COLO 205 colon = tested on: COLO 205 colon
# DU-145 prostate = tested on: DU-145 prostate
# CCRF-CEM leukemia = tested on: CCRF-CEM leukemia
# MDA-MB-231 breast = tested on: MDA-MB-231 breast
# SK-MEL-28 melanoma = tested on: SK-MEL-28 melanoma
# SK-MEL-5 melanoma = tested on: SK-MEL-5 melanoma
# SF-539 CNS = tested on: SF-539 CNS
# A549 NSCLC = tested on: A549 NSCLC
# SR leukemia = tested on: SR leukemia
# MDA-MB-435 = tested on: MDA-MB-435
# A498 renal = tested on: A498 renal
# HS 578T breast = tested on: HS 578T breast
# SNB-75 CNS = tested on: SNB-75 CNS
# LOX IMVI melanoma = tested on: LOX IMVI melanoma
# ACHN renal = tested on: ACHN renal
# IGROV1 ovarian = tested on: IGROV1 ovarian
# OVCAR-4 ovarian = tested on: OVCAR-4 ovarian
# OVCAR-3 ovarian = tested on: OVCAR-3 ovarian
# UACC-62 melanoma = tested on: UACC-62 melanoma
# TK-10 renal = tested on: TK-10 renal
# HL-60(TB) leukemia = tested on: HL-60(TB) leukemia
# T-47D breast = tested on: T-47D breast
# NCI-H226 lung = tested on: NCI-H226 lung
# HT29 colon = tested on: HT29 colon
# HCC-2998 colon = tested on: HCC-2998 colon
# NCI/ADR-RES ovarian = tested on: NCI/ADR-RES ovarian
# MCF7 breast = tested on: MCF7 breast
# RPMI-8226 leukemia = tested on: RPMI-8226 leukemia
# U251 CNS = tested on: U251 CNS
# 786-0 renal = tested on: 786-0 renal
# CAKI-1 renal = tested on: CAKI-1 renal
# OVCAR-8 ovarian = tested on: OVCAR-8 ovarian
# NCI-H522 lung = tested on: NCI-H522 lung
# SK-OV-3 ovarian = tested on: SK-OV-3 ovarian
# SK-MEL-2 melanoma = tested on: SK-MEL-2 melanoma
# NCI-H460 lung = tested on: NCI-H460 lung
# HOP-62 NSCLC = tested on: HOP-62 NSCLC
# NCI-H23 lung = tested on: NCI-H23 lung
# KM12 colon = tested on: KM12 colon
# SF-268 CNS = tested on: SF-268 CNS
# EKVX NSCLC = tested on: EKVX NSCLC
# UACC-257 melanoma = tested on: UACC-257 melanoma
# SN12C renal = tested on: SN12C renal
# RXF 393 renal = tested on: RXF 393 renal
# SW-620 colon = tested on: SW-620 colon
# BT-549 breast = tested on: BT-549 breast
# HCT-15 colon = tested on: HCT-15 colon
smiles,measurement,setting,value
C[C@@H]1CC[C@H]2C(COCCOCC3=C(C(F)(F)F)O[C@@H]4O[C@@]5(C)CC[C@H]6[C@H](C)CC[C@@H]3[C@@]46OO5)=C(C(F)(F)F)O[C@@H]3O[C@@]4(C)CC[C@@H]1[C@]32OO4,TGI,SNB-19 CNS,> 100000 nM
same,GI50,OVCAR-5 ovarian,> 4640 nM
same,TGI,OVCAR-5 ovarian,> 20000 nM
same,GI50,HOP-92 NSCLC,67.9 nM
same,TGI,HOP-92 NSCLC,> 100000 nM
same,GI50,HCT-116 colon,24.3 nM
same,TGI,HCT-116 colon,> 100000 nM
same,GI50,UO-31 renal,186 nM
same,TGI,UO-31 renal,> 100000 nM
same,GI50,MOLT-4 leukemia,< 34.9 nM
same,TGI,MOLT-4 leukemia,> 100000 nM
same,GI50,M14 melanoma,557 nM
same,TGI,M14 melanoma,> 100000 nM
same,GI50,K-562 leukemia,< 24.1 nM
same,TGI,K-562 leukemia,> 100000 nM
same,GI50,MALME-3M melanoma,< 10 nM
same,TGI,MALME-3M melanoma,9260 nM
same,GI50,PC-3 prostate,< 10 nM
same,TGI,PC-3 prostate,> 100000 nM
same,GI50,COLO 205 colon,18.8 nM
same,TGI,COLO 205 colon,1640 nM
same,GI50,DU-145 prostate,> 100000 nM
same,TGI,DU-145 prostate,> 100000 nM
same,GI50,CCRF-CEM leukemia,< 20.9 nM
same,TGI,CCRF-CEM leukemia,> 100000 nM
same,GI50,MDA-MB-231 breast,1970 nM
same,TGI,MDA-MB-231 breast,> 15800 nM
same,GI50,SK-MEL-28 melanoma,> 7200 nM
same,TGI,SK-MEL-28 melanoma,> 55300 nM
same,GI50,SK-MEL-5 melanoma,176 nM
same,TGI,SK-MEL-5 melanoma,> 100000 nM
same,GI50,SF-539 CNS,26.4 nM
same,TGI,SF-539 CNS,> 69800 nM
same,GI50,A549 NSCLC,< 33.2 nM
same,TGI,A549 NSCLC,> 100000 nM
same,GI50,SR leukemia,11.6 nM
same,TGI,SR leukemia,> 100000 nM
same,GI50,MDA-MB-435,42.6 nM
same,TGI,MDA-MB-435,> 100000 nM
same,GI50,A498 renal,> 20200 nM
same,TGI,A498 renal,> 96900 nM
same,TGI,HS 578T breast,> 100000 nM
same,GI50,SNB-75 CNS,> 4640 nM
same,TGI,SNB-75 CNS,> 100000 nM
same,GI50,LOX IMVI melanoma,64.1 nM
same,GI50,ACHN renal,79.7 nM
same,TGI,ACHN renal,> 10300 nM
same,GI50,IGROV1 ovarian,> 21100 nM
same,TGI,IGROV1 ovarian,> 100000 nM
same,GI50,OVCAR-4 ovarian,> 100000 nM
same,TGI,OVCAR-4 ovarian,> 100000 nM
same,GI50,OVCAR-3 ovarian,134 nM
same,TGI,OVCAR-3 ovarian,> 8240 nM
same,GI50,UACC-62 melanoma,141 nM
same,TGI,UACC-62 melanoma,> 100000 nM
same,GI50,TK-10 renal,55.7 nM
same,TGI,TK-10 renal,> 100000 nM
same,GI50,HL-60(TB) leukemia,< 21.3 nM
same,GI50,T-47D breast,< 14 nM
same,TGI,T-47D breast,> 94600 nM
same,GI50,NCI-H226 lung,102 nM
same,TGI,NCI-H226 lung,> 100000 nM
same,GI50,HT29 colon,< 13.8 nM
same,TGI,HT29 colon,> 100000 nM
same,GI50,HCC-2998 colon,> 11900 nM
same,TGI,HCC-2998 colon,> 100000 nM
same,GI50,NCI/ADR-RES ovarian,5570 nM
same,TGI,NCI/ADR-RES ovarian,> 100000 nM
same,GI50,MCF7 breast,32.2 nM
same,TGI,MCF7 breast,> 100000 nM
same,GI50,RPMI-8226 leukemia,< 13.9 nM
same,GI50,U251 CNS,< 10 nM
same,TGI,U251 CNS,178 nM
same,TGI,786-0 renal,> 100000 nM
same,GI50,CAKI-1 renal,304 nM
same,TGI,CAKI-1 renal,> 12900 nM
same,GI50,OVCAR-8 ovarian,< 26.1 nM
same,TGI,OVCAR-8 ovarian,> 100000 nM
same,GI50,NCI-H522 lung,2900 nM
same,TGI,NCI-H522 lung,> 100000 nM
same,GI50,SK-OV-3 ovarian,> 31500 nM
same,TGI,SK-OV-3 ovarian,> 100000 nM
same,GI50,SK-MEL-2 melanoma,> 100000 nM
same,TGI,SK-MEL-2 melanoma,> 100000 nM
same,GI50,NCI-H460 lung,< 20.2 nM
same,TGI,NCI-H460 lung,> 100000 nM
same,GI50,HOP-62 NSCLC,> 24000 nM
same,TGI,HOP-62 NSCLC,> 100000 nM
same,GI50,NCI-H23 lung,535 nM
same,TGI,NCI-H23 lung,> 100000 nM
same,GI50,KM12 colon,30.5 nM
same,TGI,KM12 colon,> 6150 nM
same,GI50,SF-268 CNS,60.2 nM
same,TGI,SF-268 CNS,> 100000 nM
same,GI50,EKVX NSCLC,795 nM
same,TGI,EKVX NSCLC,> 100000 nM
same,GI50,UACC-257 melanoma,407 nM
same,TGI,UACC-257 melanoma,> 100000 nM
same,GI50,SN12C renal,< 44.8 nM
same,TGI,SN12C renal,> 100000 nM
same,GI50,RXF 393 renal,> 100000 nM
same,TGI,RXF 393 renal,> 100000 nM
same,GI50,SW-620 colon,29.3 nM
same,TGI,SW-620 colon,> 100000 nM
same,GI50,BT-549 breast,224 nM
same,TGI,BT-549 breast,> 100000 nM
same,GI50,HCT-15 colon,26.4 nM
same,TGI,HCT-15 colon,> 13800 nM
